Data reported in patent publication US20260355330A1, “CELL PENETRATING PEPTIDES AND USES THEREOF” (VECTIOPEP OÜ, priority 2022, published 2026).
Positions of bridges follow the written chain, without caps; N, C: chain ends. Non-standard residues stand in square brackets, D forms with d. Residues, ends and D or L forms follow the SMILES beside them. Chains are numbered I, II in the order given. *: point of attachment. Arachidoyl = CCCCCCCCCCCCCCCCCCCC(=O)*; Stearoyl = CCCCCCCCCCCCCCCCCC(=O)*; Palmitoyl = CCCCCCCCCCCCCCCC(=O)*; Orn = NCCC[C@H](N)C(=O)O; Dab = NCC[C@H](N)C(=O)O

Tests used:
[1] = test system: spleen of BALB/c mice; assay: In vivo delivery of mRNA with CPPs - reporter levels in the spleen; settings: for Reporter levels in the spleen (RLU): mRNA, tail vein injection, spleens harvested 16 hours after single injection, whole tissue homogenate; for Efficacy of mRNA delivery into the spleen in vivo: in words, FIG. 5 / Table 5
Procedure: FIG. 5: Delivery of mRNA with CPPs in vivo—reporter levels in the spleen. Spleens were harvested post mortem 16 hours post-injection. The reporter levels (RLU) were evaluated from the whole tissue homogenate.
The transfection complexes (CPP/mRNA) were formed using 10 μg of mRNA mixed with each peptide at indicated charge ratios (CRs) in MQ water in a final volume of 100 μl. CRs were calculated theoretically and account for both the positive charges of the peptide and negative charges of the nucleic acid. The transfection complexes (CPP/mRNA and CPP/pDNA) were formed using 50 μg of mRNA mixed with each peptide at indicated charge ratios (CRs) in MQ water in a final volume of 168 μl. The complexes were incubated for 30 minutes at room temperature and then mixed with equal volume of 10% glucose (resulting in a final solution of 5% glucose in a total volume of 200 μl for 10 μg dose groups and 336 μl for 50 μg dose groups) and immediately injected intravenously via the tail vein.
The reporter gene (luciferase) expression levels were evaluated from the tissue homogenate post mortem 16-24 h after single injection.
CPPs and mRNA complexes were injected through the tail vein of BALB/c mice, spleens were harvested 16 hours after the single injection and reporter signal was measured from the whole tissue homogenate (FIG. 5 and Table 5).

[2] = test system: CHO-K1 cells; assay: Delivery of reporter mRNA with CPPs in cell culture (luciferase luminescence 24 h post-transfection); type: cell-based; settings: for Average RLU/mg (reporter levels post-transfection of mRNA): firefly luciferase mRNA, 0.1 μg per well, charge ratio 3:1, serum containing media, 24 h, RLU normalised to total protein in lysate; for Efficiency of mRNA transfection/delivery / Delivery of mRNA compared to NF55: in words; for Efficiency of mRNA transfection/delivery: FIG. 1 / Table 2, cell culture; for Delivery of mRNA compared to NF55: comparator NF55
Procedure: FIG. 1: Delivery of reporter mRNA with CPPs in cell culture—evaluation of reporter levels post-transfection (relative light units normalised to total protein in the cell lysate (RLU/mg)). Naked mRNA treated cells were used as controls and Lipofectamine3000 (LF3000) was used to compare the transfection efficacy with a liposome-based transfection reagent.
Adherent CHO-K1 cells were grown in Dulbecco's Modified Eagle's Medium (DMEM), which were supplemented with 0.1 mM non-essential amino acids, 1.0 mM sodium pyruvate, 100 U/ml penicillin, and […]. For complete media, 10% (final) fetal bovine serum (FBS) was added. Cells were maintained in a humidified incubator at 37 °C, 5% CO2. Cell viability and confluence was assessed daily and the cell density was reduced regularly. For cell counting, we used the CytoSMART cell counter accompanied by 0.4% trypan blue staining prior measurement. The multi-well plates with cell cultures used for experiments were incubated in a humidified incubator at 37 °C, 5% CO2.
For in vitro experiments 0.1 μg of nucleic acid (plasmid DNA (pDNA) or mRNA) was used per 96-well plate well. For CPP/NA complex formation, the diluted NA was mixed with CPP in water. Complexes were formed based on the theoretical charge ratio (CR) of positive charges from the peptide in excess to the negative charges from nucleic acid backbone, at charge ratio 3:1 with peptide in excess. Commercial reagent Lipofectamine3000 (LF3000) was used according to the manufacturer's recommendations for the transfection of adherent cells.
For reporter luminescence (expressed from firefly luciferase encoding mRNA or plasmid pDNA) assessment in adherent cell culture, 10,000 cells per 96-well plate well were seeded in 100 μl of media one day prior to transfection. Shortly before transfection, cell media was replaced with 100 μl of serum containing (10% foetal bovine serum) DMEM media. CPPs and mRNA or pDNA were mixed at a charge ratio 3:1 in ultrapure water and incubated at room temperature before addition to cells in serum containing media. Cells were transfected with 0.1 μg of mLuc per well.
24 hours post-transfection, the media was aspirated, cells were washed with 1×PBS, and 30 μl of lysis buffer (0.1% Triton X100 in 1×PBS) was added. Cells were incubated with lysis buffer for 20 min. to lyse the cells. From the lysate, 20 μl was transferred to a black frame white well 96-well plate for luminescence measurement after addition of substrate luciferin (PerkinElmer) in buffer. The luminescence signal was detected with GloMax® 96 microplate luminometer equipped with GloMax® 1.9.2 software (Promega). RLU values were converted to RLU/mg by normalization to total protein in cell lysate, reflecting total number of cells. For protein detection, a Pierce™ BCA Protein Assay Kit was used.
The present inventors have previously reported CPPs developed from the NickFect (NF) and PepFect (PF) families for plasmid (pDNA), siRNA and miRNA delivery (see, e.g. WO 2020/144317, WO 2010/039088 and WO 2012/113846). With the emergence of mRNA-based therapeutics, it was decided to investigate peptides for their ability to deliver mRNA. It was assumed that CPPs that are efficient for siRNA and miRNA delivery, e.g. histidine containing CPPs (Porosk et. al. (2019)), may be good candidates for the delivery of mRNA. Therefore, CPPs from each main family (NF55-, PF14- and NF70-derived CPPs) were tested for mRNA delivery/transfection. Naked mRNA treated and untreated cells were used as control groups. LF3000 was used to compare the transfection efficacy of liposome-based transfection reagents with the CPPs (FIG. 1).

Row | Compound | Reporter levels in the spleen (RLU) [1] | Average RLU/mg (reporter levels post-transfection of mRNA) [2] | Efficiency of mRNA transfection/delivery [2] | Delivery of mRNA compared to NF55 [2] | Efficacy of mRNA delivery into the spleen in vivo [1]
1 | CCCCCCCCCCCCCCCCCC(=O)N[C@@H](C)C(=O)NCC(=O)N[C@@H](Cc1ccc(O)cc1)C(=O)N[C@@H](CC(C)C)C(=O)N[C@@H](CC(C)C)C(=O)NCC(=O)NCCCC[C@H](N)C(=O)N[C@H](C(=O)N[C@@H](CC(N)=O)C(=O)N[C@@H](CC(C)C)C(=O)N[C@@H](CCCCN)C(=O)N[C@@H](C)C(=O)N[C@@H](CC(C)C)C(=O)N[C@@H](C)C(=O)N[C@@H](C)C(=O)N[C@@H](CC(C)C)C(=O)N[C@@H](C)C(=O)N[C@@H](CCCCN)C(=O)N[C@@H](C)C(=O)N[C@H](C(=O)N[C@@H](CC(C)C)C(N)=O)[C@@H](C)CC)[C@@H](C)CC [NF554] (I: H-KINLKALAALAKAIL-NH2 / II: Stearoyl-AGYLLG; amide I:1-II:C) | 83 650 RLU | 1 690 000 000 RLU/mg | the most efficient | improved delivery of mRNA over NF55 | –
2 | CCCCCCCCCCCCCCCCCCCC(=O)N[C@@H](C)C(=O)NCC(=O)N[C@@H](Cc1ccc(O)cc1)C(=O)N[C@@H](CC(C)C)C(=O)N[C@@H](CC(C)C)C(=O)NCC(=O)NCCC[C@H](N)C(=O)N[C@H](C(=O)N[C@@H](CC(N)=O)C(=O)N[C@@H](CC(C)C)C(=O)N[C@@H](CCCCN)C(=O)N[C@@H](C)C(=O)N[C@@H](CC(C)C)C(=O)N[C@@H](C)C(=O)N[C@@H](C)C(=O)N[C@@H](CC(C)C)C(=O)N[C@@H](C)C(=O)N[C@@H](CCCCN)C(=O)N[C@@H](C)C(=O)N[C@H](C(=O)N[C@@H](CC(C)C)C(N)=O)[C@@H](C)CC)[C@@H](C)CC [NF410] | 36 670 RLU | 1 080 000 000 RLU/mg | the most efficient | – | –
3 | CCCCCCCCCCCCCCCCCC(=O)N[C@@H](C)C(=O)NCC(=O)N[C@@H](Cc1ccc(O)cc1)C(=O)N[C@@H](CC(C)C)C(=O)N[C@@H](CC(C)C)C(=O)NCC(=O)NCCC[C@H](N)C(=O)N[C@@H](CC(C)C)C(=O)N[C@@H](CCCCN)C(=O)N[C@@H](C)C(=O)N[C@@H](CC(C)C)C(=O)N[C@@H](C)C(=O)N[C@@H](C)C(=O)N[C@@H](CC(C)C)C(=O)N[C@@H](C)C(=O)N[C@@H](CCCCN)C(=O)N[C@@H](C)C(=O)N[C@H](C(=O)N[C@@H](CC(C)C)C(N)=O)[C@@H](C)CC [NF430] (I: H-[Orn]LKALAALAKAIL-NH2 / II: Stearoyl-AGYLLG; amide I:1-II:C) | 405 318 RLU | 766 000 000 RLU/mg | – | – | highest reporter levels after mRNA delivery into the spleen in vivo
4 | CCCCCCCCCCCCCCCCCC(=O)N[C@@H](C)C(=O)NCC(=O)N[C@@H](Cc1ccc(O)cc1)C(=O)N[C@@H](CC(C)C)C(=O)N[C@@H](CC(C)C)C(=O)NCC(=O)NCC[C@H](N)C(=O)N[C@H](C(=O)N[C@@H](CC(N)=O)C(=O)N[C@@H](CC(C)C)C(=O)N[C@@H](CCCCN)C(=O)N[C@@H](C)C(=O)N[C@@H](CC(C)C)C(=O)N[C@@H](C)C(=O)N[C@@H](C)C(=O)N[C@@H](CC(C)C)C(=O)N[C@@H](C)C(=O)N[C@@H](CCCCN)C(=O)N[C@@H](C)C(=O)N[C@H](C(=O)N[C@@H](CC(C)C)C(N)=O)[C@@H](C)CC)[C@@H](C)CC [NF553] | 57 989 RLU | 1 750 000 000 RLU/mg | the most efficient | improved delivery of mRNA over NF55 | –
5 | CCCCCCCCCCCCCCCC(=O)N[C@@H](C)C(=O)NCC(=O)N[C@@H](Cc1ccc(O)cc1)C(=O)N[C@@H](CC(C)C)C(=O)N[C@@H](CC(C)C)C(=O)NCC(=O)NCC[C@H](N)C(=O)N[C@@H](CC(C)C)C(=O)N[C@@H](CCCCN)C(=O)N[C@@H](C)C(=O)N[C@@H](CC(C)C)C(=O)N[C@@H](C)C(=O)N[C@@H](C)C(=O)N[C@@H](CC(C)C)C(=O)N[C@@H](C)C(=O)N[C@@H](CCCCN)C(=O)N[C@@H](C)C(=O)N[C@H](C(=O)N[C@@H](CC(C)C)C(N)=O)[C@@H](C)CC [NF425] (I: H-[Dab]LKALAALAKAIL-NH2 / II: Palmitoyl-AGYLLG; amide I:1-II:C) | 209 700 RLU | 106 000 000 RLU/mg | – | – | delivered mRNA into the spleen in vivo with high efficacy
6 | CCCCCCCCCCCCCCCCCCCC(=O)N[C@@H](C)C(=O)NCC(=O)N[C@@H](Cc1ccc(O)cc1)C(=O)N[C@@H](CC(C)C)C(=O)N[C@@H](CC(C)C)C(=O)NCC(=O)NCCCC[C@H](N)C(=O)N[C@H](C(=O)N[C@@H](CC(N)=O)C(=O)N[C@@H](CC(C)C)C(=O)N[C@@H](CCCCN)C(=O)N[C@@H](C)C(=O)N[C@@H](CC(C)C)C(=O)N[C@@H](C)C(=O)N[C@@H](C)C(=O)N[C@@H](CC(C)C)C(=O)N[C@@H](C)C(=O)N[C@@H](CCCCN)C(=O)N[C@@H](C)C(=O)N[C@H](C(=O)N[C@@H](CC(C)C)C(N)=O)[C@@H](C)CC)[C@@H](C)CC [NF412] (I: H-KINLKALAALAKAIL-NH2 / II: Arachidoyl-AGYLLG; amide I:1-II:C) | 36 759 RLU | 393 000 000 RLU/mg | – | – | –
7 | CCCCCCCCCCCCCCCCCC(=O)N[C@@H](C)C(=O)NCC(=O)N[C@@H](Cc1ccc(O)cc1)C(=O)N[C@@H](CC(C)C)C(=O)N[C@@H](CC(C)C)C(=O)NCC(=O)NC[C@H](N)C(=O)N[C@H](C(=O)N[C@@H](CC(N)=O)C(=O)N[C@@H](CC(C)C)C(=O)N[C@@H](CCCCN)C(=O)N[C@@H](C)C(=O)N[C@@H](CC(C)C)C(=O)N[C@@H](C)C(=O)N[C@@H](C)C(=O)N[C@@H](CC(C)C)C(=O)N[C@@H](C)C(=O)N[C@@H](CCCCN)C(=O)N[C@@H](C)C(=O)N[C@H](C(=O)N[C@@H](CC(C)C)C(N)=O)[C@@H](C)CC)[C@@H](C)CC [NF550] | 33 032 RLU | 441 000 000 RLU/mg | – | – | –
8 | CCCCCCCCCCCCCCCCCC(=O)N[C@@H](C)C(=O)NCC(=O)N[C@@H](Cc1ccc(O)cc1)C(=O)N[C@@H](CC(C)C)C(=O)N[C@@H](CC(C)C)C(=O)NCC(=O)N[C@@H](CCN)C(=O)N[C@H](C(=O)N[C@@H](CC(N)=O)C(=O)N[C@@H](CC(C)C)C(=O)N[C@@H](CCCCN)C(=O)N[C@@H](C)C(=O)N[C@@H](CC(C)C)C(=O)N[C@@H](C)C(=O)N[C@@H](C)C(=O)N[C@@H](CC(C)C)C(=O)N[C@@H](C)C(=O)N[C@@H](CCCCN)C(=O)N[C@@H](C)C(=O)N[C@H](C(=O)N[C@@H](CC(C)C)C(N)=O)[C@@H](C)CC)[C@@H](C)CC [NF559] | 56 280 RLU | 563 000 000 RLU/mg | – | – | –
